From paper PMC6332076, “Plasma Pharmacokinetics of Polyphenols in a Traditional Japanese Medicine, Jumihaidokuto, Which Suppresses Propionibacterium acnes-Induced Dermatitis in Rats” (Molecules, 2015)
Where two headings read alike, the source gives them in different places.

Key:
in vivo = assay: in vivo; set-up: species or system rat; details: for AUC(0-t) / Cmax / tmax / half-life: oral JHT 2 g/kg, non-compartmental; for concentration at 1 h / concentration at 24 h: rat, po, 2 g/kg; for concentration at 1 h: plasma, 1 h after oral JHT 2 g/kg; for concentration at 24 h: in vivo, 24 h after oral JHT 2 g/kg
Method: The higher dose than that in the pharmacological test was used to detect more constituents. […] In some experiments to deconjugate glucuronidated polyphenols, the samples were incubated with 75 mmol/L phosphate buffer containing 200 units/mL β-glucuronidase from Escherichia coli (Sigma-Aldrich) for 2 h at 37 °C.
For quantification of liquiritin, liquiritigenin, isoliquiritin, isoliquiritigeniin, hesperidin, hesperetin, castalagin, and all flavonoid glucuronides, 25–60 µL of standard solution and 25 µL of internal standard solution were added to 200–300 µL of plasma samples, followed by mixing well. Methanol (750–800 µL) was added to the solutions, followed by mixing and centrifugation (7000 g, 5 min). The supernatants were collected and dried at 40 °C under a stream of nitrogen gas. Then, the dried residue was dissolved in 50–100 μL of the HPLC mobile phase of each analytical method, and a 1–20 μL portion was injected into the LC-MS/MS systems. For quantification of genistein, luteolin, quercetin, (+)-catechin, (−)-epicatechin gallate, (±)-gallocatechin, Gallic acid, 4-O-methylgallic acid, hamamelitannin, 1,2,3,6-tetra-O-galloyl glucose, 1,2,3,4,6-penta-O-galloyl glucose, eugeniin, and 1-desgalloyl eugeniin, 200 μL of plasma samples were used. The amounts were measured using the same procedure, as described previously, except ethyl acetate (500 μL) and 2% acetic acid (100 μL), instead of methanol, were used concurrently as an extraction solution.
Plasma pharmacokinetic data were analyzed by non-compartmental modeling using Phoenix WinNonlin (version 6.3, Certara L.P., St. Louis, MO, USA) to determine various pharmacokinetic constants including the maximum concentration (Cmax), time to maximum concentration (tmax), apparent elimination half-life (t1/2), and area under the plasma concentration-time curve from time zero to the last observation (AUC0–last). The t1/2 was […] loge2/ke, where ke is the terminal elimination (at least three data points on the descending linear limb) rate constant.

[1] = Antioxidant assay, hydrogen peroxide-dependent oxidation (OxiSelect In vitro ROS/RNS Assay, DCFH-DiOxyQ); assay type: biochemical; details: for anti-ROS activity of glucuronide compared with its aglycone: serially-diluted concentrations; for Antioxidant activity, IC50, Hydrogen Peroxide: tested at 0.1-30 μmol/L, N = 3, n.d. = not detectable at the maximal concentration (30 μmol/L); for activity against ROS (in words): hydrogen peroxide-dependent oxidation
Method: Figure 4 Concentration dependency of flavonoid glucuronides and comparison with aglycones. Glucuronides and aglycones of flavonoid were assayed at serially-diluted concentrations to assess on hydrogen peroxide-dependent oxidation. Test samples were incubated with hydrogen peroxide for 5 min, followed by mixing with a probe of oxidant activity. After 15 min incubation, the hydrogen peroxide-dependent fluorescent intensity was measured. Data are shown as mean ± S.E. of triplicates. To assess ROS, OxiSelect In vitro ROS/RNS Assay kits ([…], Minneapolis, MN, USA) were used according to manufacturer’s instructions. Briefly, a test sample was incubated with 2.5 μmol/L of hydrogen peroxide for 5 min, and dichlorodihydrofluorescin DiOxyQ (DCFH-DiOxyQ) was added as a probe of oxidant activity. After 15 min incubation, the hydrogen peroxide-dependent fluorescent intensity was measured using a fluorescent plate reader (Infinite M200; Tecan, Wako Pure Chemical Industries). Percentage of inhibition of ROS was calculated using the following equation: [1 − (sample RFU^a − base RFU^b)/(control RFU^c − base RFU^b)] × 100 (1) where RFU is a relative fluorescent unit of reaction solution, a is RFU of DCFH-DiOxyQ with hydrogen peroxide and sample, b is RFU of DCFH-DiOxyQ alone, and c is RFU of DCFH-DiOxyQ with hydrogen peroxide.

[2] = rat plasma after oral JHT 2 g/kg
[3] = rat plasma, read-out: plasma concentration after β-glucuronidase treatment
[4] = rat plasma, read-out: plasma concentration before β-glucuronidase treatment
[5] = rat plasma, 6 h after oral JHT 2 g/kg

| SMILES | Antioxidant activity, IC50, Hydrogen Peroxide [1] | AUC(0-t) (in vivo; rat plasma) [ng·h/mL] | Cmax (in vivo; rat plasma) [ng/mL] | tmax (in vivo; rat plasma) [H] | half-life (in vivo; rat plasma) [h] | anti-ROS activity of glucuronide compared with its aglycone ([1]; Figure 4) | other results |
| --- | --- | --- | --- | --- | --- | --- | --- |
| O=C(O)c1cc(O)c(O)c(O)c1 [Gallic acid] |  |  |  |  |  |  | plasma concentration (not detected) (in vivo; [2]): < 10 ng/mL |
| O=C(O)C1OC(Oc2cc(O)c3c(=O)c(-c4ccc(O)cc4)coc3c2)C(O)C(O)C1O (stereo not drawn) [Genistein 7-O-glucuronide, genistein 7-O-glucuronide] | 0.638 µg/mL | 812 | 53.4 | 24.0 |  | completely identical to that of their aglycones | inhibition (anti-ROS activity) ([1]; at 134 ng/mL, statistically significant, Figure 4): 25%; plasma concentration (in vivo; rat plasma at 10 and 24 h after oral JHT): approximately 50 ng/mL; tmax (in vivo; rat plasma, listed as GEN-7G): 24 H |
| O=C(C=Cc1ccc(O)cc1)c1ccc(O)cc1OC1OC(C(=O)O)C(O)C(O)C1O (stereo not drawn) [Isoliquiritigenin 2′-O-glucuronide, isoliquiritigenin 2′-O-glucuronide] | 0.704 µg/mL | 11.6 | 3.19 | 0.250 |  |  |  |
| O=C(C=Cc1ccc(O)cc1)c1ccc(OC2OC(C(=O)O)C(O)C(O)C2O)cc1O (stereo not drawn) [Isoliquiritigenin 4′-O-glucuronide, isoliquiritigenin 4′-O-glucuronide] | 0.691 µg/mL | 80.8 | 15.8 | 0.250 | 2.25 | completely identical to that of their aglycones |  |
| O=C(O)[C@H]1O[C@@H](Oc2cc(O)c3c(=O)cc(-c4ccc(O)c(O)c4)oc3c2)[C@H](O)[C@@H](O)[C@@H]1O [LTN-7G, luteolin 7-O-glucuronide] |  |  |  |  |  |  | appearance / detection in plasma (in vivo; [2]): did not appear in the plasma |
| O=C1CC(c2ccc(OC3OC(C(=O)O)C(O)C(O)C3O)cc2)Oc2cc(O)ccc21 (stereo not drawn) [Liquiritigenin 4′-O-glucuronide, liquiritigenin 4′-O-glucuronide] | not detectable even at the highest concentration | 522 | 84.1 | 2.00 | 2.27 | no activity | activity against ROS (in words) [1]: no activity |
| O=C1C[C@@H](c2ccc(O[C@@H]3O[C@H](CO)[C@@H](O)[C@H](O)[C@H]3O)cc2)Oc2cc(O)ccc21 [Liquiritin] |  |  |  |  |  |  | concentration at 1 h (in vivo; [3]): 39.1 ng/mL; concentration at 1 h (in vivo; [4]): 2.4 ng/mL |
| O=C(O)[C@H]1O[C@@H](Oc2c(-c3ccc(O)c(O)c3)oc3cc(O)cc(O)c3c2=O)[C@H](O)[C@@H](O)[C@@H]1O [QCN-3G, quercetin 3-O-glucuronide] |  |  |  |  |  |  | appearance / detection in plasma (in vivo; [2]): did not appear in the plasma |
| O=c1c(-c2ccc(O)cc2)coc2cc(O)cc(O)c12 [genistein] |  |  |  |  |  |  | concentration at 24 h (in vivo; [3]): 78.3 ng/mL; concentration at 24 h (in vivo; [4]): 0.975 ng/mL |
| O=C1C[C@@H](c2ccc(O)cc2)Oc2cc(O)ccc21 [liquiritigenin] |  |  |  |  |  |  | activity against ROS (in words) [1]: strong activity; plasma concentration after β-glucuronidase treatment (in vivo; [5]): 200 ng/mL; plasma concentration before β-glucuronidase treatment (in vivo; [5]): 0.873 ng/mL |

More lines, main results first:

| Antioxidant activity, IC50, Hydrogen Peroxide [1] | AUC(0-t) (in vivo; rat plasma) [ng·h/mL] | Cmax (in vivo; rat plasma) [ng/mL] | tmax (in vivo; rat plasma) [H] | half-life (in vivo; rat plasma) [h] | SMILES | anti-ROS activity of glucuronide compared with its aglycone ([1]; Figure 4) | other results |
| --- | --- | --- | --- | --- | --- | --- | --- |
| 4.27 µg/mL | 190 | 34.2 | 4.00 | 2.99 | COc1ccc(C2CC(=O)c3c(O)cc(OC4OC(C(=O)O)C(O)C(O)C4O)cc3O2)cc1O (stereo not drawn) [Hesperetin 7-O-glucuronide, hesperetin 7-O-glucuronide] | partially decreased |  |
|  | 1.84 | 0.388 | 0.250 | 5.68 | O=C(C=Cc1ccc(OC2OC(C(=O)O)C(O)C(O)C2O)cc1)c1ccc(O)cc1O (stereo not drawn) [Isoliquiritigenin 4-O-glucuronide, isoliquiritigenin 4-O-glucuronide] |  |  |
| 0.765 µg/mL | 223 | 35.6 | 2.00 | 2.72 | O=C1CC(c2ccc(O)cc2)Oc2cc(OC3OC(C(=O)O)C(O)C(O)C3O)ccc21 (stereo not drawn) [Liquiritigenin 7-O-glucuronide, liquiritigenin 7-O-glucuronide] | completely identical to that of their aglycones |  |
